According to patent US20240108598A1, “Danegaptide for Use in the Treatment or Prevention of a Kidney Disease” (CIANA THERAPEUTICS APS, priority 2021, published 2024):

Test system: HK2 cells
Test: Crystal violet assay
Assay type: cell-based, human
Settings: 48 h
Method: HK2 cells were cultured in low glucose (5 mM) for 48 h, prior to being serum-starved overnight and subsequently treated with TGFβ1 (10 ng/mL)±danegaptide (50 nM-1 μM) for 48 h (FIG. 1A, n=3).
This simple assay was used to measure the relative density of adhered cells to multi-well dishes. Crystal Violet stains DNA and can be quantified colourmetrically after solubilisation. HK2 cells were seeded in 12-well plates and cultured in low glucose DMEM/F12 (5 mM) for 48 h, prior to overnight serum-starvation, then subsequently stimulated for 48 h with TGFβ1 (10 ng/ml)±danegaptide (50-1000 nM). The assay has been described previously (Hills, C. E.; Jin, T.; Siamantouras, E.; Liulssac, I. K. K.; Jefferson, K. P.; Squires, P. E. “Special K” and a Loss of Cell-To-Cell Adhesion in Proximal Tubule-Derived Epithelial Cells: Modulation of the Adherens Junction Complex by Ketamine. PLoS One 2013, 8, e71819). Briefly, cells were fixed using paraformaldehyde for 10 mins, washed with PBS and incubated for 10 mins at RT in a 1% crystal violet solution. After several more washes, the stain was solubilised using 1% SDS, and absorbance measured by a plate reader.

Structure (SMILES): NCC(=O)N1C[C@H](NC(=O)c2ccccc2)C[C@H]1C(=O)O [danegaptide, (2S,4R)-1-(2-aminoacetyl)-4-benzamidopyrrolidine2-carboxylic acid]
- crystal violet staining, of control (TGFβ1 10 ng/mL + danegaptide 50 nM): 98.2±1.9%
- crystal violet staining, of control (TGFβ1 10 ng/mL + danegaptide 100 nM): 97.5±1.8%
- crystal violet staining, of control (TGFβ1 10 ng/mL + danegaptide 1 μM): 85.8±5.3%
- crystal violet staining, of control (danegaptide alone 50 nM): 98.3±2.5%
- crystal violet staining, of control (danegaptide alone 100 nM): 99.6±2.7%
- crystal violet staining, of control (danegaptide alone 1 μM): 98.5±2.2%
